These results are taken from article PMC8317065, “UPLC-MS/MS Method for Analysis of Endocannabinoid and Related Lipid Metabolism in Mouse Mucosal Tissue” (Frontiers in Physiology, 2021).

This experiment relates to DGL. Description: DGL (MAG biosynthetic enzyme) activity assay, UPLC-MS/MS, jejunum epithelium protein isolates. It counts as biochemical, mouse. The settings on record: jejunum epithelium protein 50 μg. The method, then:
Homogenized samples were centrifuged at 800 × g for 15 m at 4°C. The supernatant was collected in a 2.0 mL centrifuge tube and sonicated twice for 10 s. Samples underwent two sequential freeze thaw cycles using liquid N2. Samples were again centrifuged at 800 × g, 15 min, 4°C and the supernatant was collected. Total protein was then quantified via BCA assay and normalized between all samples. Protein isolations for each assay and each tissue were performed separately.
Substrate solutions were prepared by drying stock 19:2 DAG (20 nmol/reaction) under N2 steam (99.998% pure) and reconstituted in a solution of 50 mM Tris–HCl with 0.2% Triton x-100 (pH = 7.0). This solution was bath sonicated for 60 min at room temperature while protein samples were prepared. […] The products of the reaction were extracted via lipid extraction methods (see section “Lipid Extraction for Enzyme Assays”) and quantified via UPLC-MS/MS (see section “Quantitation of MAG Biosynthetic Enzyme Activity Assay Products”).
Lipids were extracted using liquid-liquid extraction with chloroform (2.0 mL) followed by 0.8 mL 0.2-micron ultra-purified water. […] Products were detected and quantified via UPLC-MS/MS techniques (see section “UPLC-MS/MS Detection of Analytes”). […]

Turning to `CCCCCCCCCCC[C@@H](C[C@@H]1OC(=O)[C@H]1CCCCCC)OC(=O)[C@H](CC(C)C)NC=O` [THL, tetrahydrolipstatin], the “DGL activity (normalized response)” value is given as 20.39 ± 6.65% (highest inhibitor concentration of range (1,000 nM)) and 108.85 ± 6.19% (lowest inhibitor concentration of range (3 nM)).
